Structures can show the parent of a compound that is named as a salt.
Columns and labels:
Iba-1 = experiment: Example 9: Iba-1 expression (marker of microglia activation) in EAE mice; assay type: in vivo; details: AMT 60 mg/kg/day, FIG. 8
[1] = dose related; Gracies and Olanow 2002; cited from earlier work
[2] = system: MOG35-55 induced experimental autoimmune encephalomyelitis (EAE) in C57BL/6 mice; experiment: Example 9: clinical scoring of EAE in a mouse model of multiple sclerosis; assay type: in vivo; details: for onset of disease / clinical scores: AMT 60 mg/kg/day or DAL 4 mg/kg/day by Alzet minipump; for clinical scores: vs untreated EAE mice, FIG. 6; for cumulative clinical score (Day 18-27): vs untreated control, FIG. 7
[3] = system: MOG35-55 induced experimental autoimmune encephalomyelitis (EAE) in C57BL/6 mice; experiment: Example 9: kinematic gait analysis / MotoRater walk test in EAE mice; assay type: in vivo; details: for % of animals able to complete the walking test: day 16, EAE mice, untreated EAE control 40%, FIG. 9
Method: The captured videos of each mouse were first converted to SimiMotion software to track the marked points of body (e.g., paws, hips, tail, etc.), and the movement of these different body points in relation to the ground were recorded in coordinates. Different gait patterns and fine motor movements were analyzed using a custom made automated analysis system. Kinematic endpoints are described in Table 13. [table] Kinematic parameters (Table 13) were graphed as individual values in a scatter graph and/or as mean (±SEM) in a bar graph.

[4] = system: multiple sclerosis patients; details: Goodman et al. 2009; cited from earlier work
Parkinson's patients = details: cited from earlier work

NC12CC3CC(CC(C3)C1)C2 [Amantadine HCl]
Iba-1 expression (Iba-1): significantly lower expression
CNS side effects [1]: dose related CNS side effects including dizziness, confusion, hallucinations, insomnia and nightmares
symptom severity ([2]; AMT 60 mg/kg/day by Alzet minipump): decreased symptom severity
onset of disease [2]: Neither group treated with drug showed a delay onset of disease
clinical scores [2]: lower clinical scores
cumulative clinical score (Day 18-27) [2]: reduced cumulative clinical scores
60 cm Walk Time ([3]; Day 14, vs untreated EAE control and dalfampridine-treated group, FIG. 10A): lower time
mean walking speed ([3]; Day 14, vs untreated EAE control and dalfampridine-treated group, FIG. 10B): faster mean walking speed
% of animals able to complete the walking test [3]: 60%

Nc1ccncc1 [Dalfampridine, 4-Aminopyridine]
walking ability [4]: improvement in walking ability in some patients
walking ability (velocity and stride length) (Parkinson's patients; Parkinson's patients, at four weeks, Luca et al. 2015): did not show an improvement
onset of disease [2]: Neither group treated with drug showed a delay onset of disease
clinical scores [2]: lower clinical scores
cumulative clinical score (Day 18-27) [2]: reduced cumulative clinical scores
% of animals able to complete the walking test [3]: 50%

COC(=O)C(c1ccccc1)C1CCCCN1 (centres unmarked) [Methylphenidate]
gait impairment (Parkinson's patients; Parkinson's disease, Espay et al. 2011): not effective
gait (Parkinson's patients; Parkinson's patients with severe gait disorders receiving STN stimulation, Moreau et al. 2012): improvement in gait

From US20160228388A1, “METHODS OF ADMINISTERING AMANTADINE COMPOSITIONS” (Adamas Pharmaceuticals, Inc., priority 2014, published 2016)
